Assay results taken from ChEMBL document CHEMBL1154197, “Synthesis and biological evaluation of berberine analogues as novel up-regulators for both low-density-lipoprotein receptor and insulin receptor” (2009).
Activity calls are given as the source filed them. The calls are words filed in the database; no cut-off is given here.

Columns and labels:
[1] = test system: HepG2; test: Upregulation of LDLR mRNA expression in human liver HepG2 at 10 ug/mL after 8 hrs by RT-PCR relative to control; format: functional
[2] = test system: HepG2; test: Upregulation of InsR mRNA expression in human liver HepG2 at 10 ug/mL after 8 hrs by RT-PCR relative to control; format: functional
[3] = test system: HepG2; test: Upregulation of InsR […] expression in human liver HepG2 at 10 ug/mL after 12 hrs by flow cytometry; format: functional, cell-based
[4] = test system: HepG2; test: Upregulation of LDLR […] expression in human liver HepG2 at 10 ug/mL after 12 hrs by flow cytometry; format: functional, cell-based

| SMILES | fold change (FC) [1] | fold change (FC) [2] | Activity [3] | Activity [4] |
| --- | --- | --- | --- | --- |
| COc1cc2c(cc1O)CC[n+]1cc3cc(O)ccc3cc1-2.[Cl-] | 1.4 | 1.2 |  |  |
| COc1cc2c(cc1OCc1ccccc1)-c1cc3ccc(OC)c(OC)c3c[n+]1CC2.[Cl-] | 1.5 | 1.7 |  |  |
| COc1cc2cc3[n+](cc2cc1OC)CCc1cc(OCc2ccccc2)ccc1-3.[Cl-] | 1 | 0.8 |  |  |
| COc1cc2cc3[n+](cc2cc1OC)CCc1cc2c(cc1-3)OCO2.[Cl-] [PSEUDOBERBERINE] | 3.1 | 1.2 |  |  |
| COc1cc2c(cc1O)-c1cc3cc(OC)c(OC)cc3c[n+]1CC2.[Cl-] | 1.1 | 0.8 |  |  |
| COc1cc2c(cc1OC)-c1cc3cc(OC)c(OC)cc3c[n+]1CC2.[Cl-] | 1.1 | 1.1 |  |  |
| COc1cc2c(cc1OC)-c1cc3ccc(O)cc3c[n+]1CC2.[Cl-] | 1 | 0.9 |  |  |
| COc1ccc2cc3[n+](cc2c1OC)CCc1cc(OCc2ccccc2)ccc1-3.[Cl-] | 1.3 | 1.3 |  |  |
| COc1cc2c(c(OC)c1OC)-c1cc3ccc(OC)c(OC)c3c[n+]1CC2.[Cl-] | 1.1 | 1.2 |  |  |
| COc1cc2cc3[n+](cc2cc1OC)CCc1cc(O)ccc1-3.[Cl-] | 0.9 | 0.7 |  |  |
| COc1cc2c(cc1O)CC[n+]1cc3cc(OC)c(OC)cc3cc1-2.[Cl-] [DEHYDRODISCRETINE CHLORIDE] | 1 | 0.6 |  |  |
| COc1ccc2cc3[n+](cc2c1OC)CCc1cc(O)ccc1-3.[Cl-] | 0.8 | 1.2 |  |  |
| Oc1ccc2cc3[n+](cc2c1)CCc1cc2c(cc1-3)OCO2.[Cl-] | 1.9 | 1.4 |  |  |
| COc1cc2cc3[n+](cc2cc1OC)CCc1cc(OC)c(OC)c(OC)c1-3.[Cl-] | 1.1 | 0.8 |  |  |
| COc1cc2c(cc1O)CC[n+]1cc3cc(OC)c(OC)c(OC)c3cc1-2.[Cl-] | 1 | 1 |  |  |
| COc1c(O)ccc2cc3[n+](cc12)CCc1cc2c(cc1-3)OCO2.[Cl-] [THALIFENDINE] | 1.6 | 1.7 | Active | Active |
| COc1ccc2cc3[n+](cc2c1OC)CCc1cc2c(cc1-3)OCO2.[Cl-] [BERBERINE CHLORIDE] | 1.9 | 2.3 |  |  |
